Data: US6541503B2, “Substituted oxindole derivatives as protein tyrosine kinase and as protein serine/threonine kinase inhibitors” (SmithKline Beecham Corporation, priority 1997, dated 2003)
Read-outs that look alike come from different tables or passages of the source.

Key:
CDK2 = CDK2 (Homo sapiens, UniProt P24941); experiment: Cyclin dependent protein kinase substrate phosphorylation assay, CDK2; type: biochemical
Description: CDK1 and CDK2 were both expressed utilizing a baculovirus expression system and were partially purified to comprise 20-80% of total protein, with no detectable competing reactions present. […] Reactions were terminated with 0.2-2 volumes of either 20% acetic acid or 50-100 mM EDTA buffered to pH 7 (substrate consumption<20%). The buffer employed in enzyme assays was either 30 mM HEPES 7.4 containing 0.15 M NaCl and 5% DMSO, the buffer 50 mM MOPS 7.0 containing 0.15 M NaCl and 5% DMSO, or the buffer 100 mM HEPES pH 7.5 containing 0.1 mg /mL BSA and 5% DMSO. Inhibitors were diluted in 100% DMSO prior to addition into the assay. Detection of peptide phosphorylation was accomplished by scintillation counting following either collection of peptide onto phosphocellulose filters (for reactions stopped with acetic acid), collection of peptide in wells of 96 well plates coated with Streptavidin (Pierce) (reactions were stopped with EDTA), or addition of Avidin coated Scintillant impregnated beads (Scintillation Proximity Assays from Amersham, reactions were stopped with EDTA).

[1] = tested on: RKO colon adenocarcinoma cells; experiment: FACS assay (cell death by flow cytometry), RKO; type: cell-based, human; conditions: 50% cell death, 72 h, read-out: FACS RKO IC50
Description: (§1) These assays allow determination of both cell death and changes in cell cycle profile in cells following treatment of the compound. The assay is performend as follows:
(§2) 1. Cells are incubated in DMEM to which 10% FCS has been added in a humidified incubator at 37° C. and 5% by volume of CO2 in air. The cells are innoculated in 6-well plates at a density of 0.5-5×10^5 cells per well.
(§3) 2. The test compound is added in serial dilutions 24-36 h after plating in 0.5% DMSO. The plates are then incubated a further 72 h in the presence of the compound. During this time, cells in control cultures undergo at least three cell divisions.
(§4) 3. After incubation, the media is collected and cells are harvested by trypsinization. The cells and media are pooled and pelleted by centrifugation.
(§5) 4. The cell pellet is fixed in a final volume of 3 mL of 50% ice cold MeOH and incubated for a minimum of 30 min at −20° C.
(§6) 5. The cells are pelleted by centrifugation and resuspended in 0.5 mL PBS containing 1%FCS, […] Propidium Iodide (PI) and 5 mg/mL RNase A and incubated 30 min at 37° C. in the dark.
(§7) 6. The samples are analysed by flow cytometry using the relative incorporation of PI as a measure of DNA content of each cell. The % Dead cells is recorded as % of events with less than 2N DNA.
(§8) HDF are normal diploid fibroblast cells. RKO are colon adenocarcinoma cells and MES/SA are […].

[2] = tested on: human diploid fibroblasts (HDF-3); experiment: G1-S progression assay (BrdU incorporation); type: cell-based; conditions: read-out: G1/S Chkpt IC50
Description: This assay is designed to determine the ability of compounds to inhibit progression of cells from G1 into S-phase. […] The protocol is as follows:
(1) Grow human diploid fibroblasts (HDF-3) in 100 mm tissue culture dish to confluency. (2) Plate 6-7×10^3 cells/well in a 96 well plate in 100 μl of DMEM. (3) After 16-17 h add various dilutions of test compounds (0.045-100 μM). Dilute compound in DMEM containing DMSO and add 100 μl to each well so that the DMSO conc. is 0.6-0.8% in 200 μl final volume. (4) Two h after addition of compound, add 20 ul of 100 μM BrdU (final conc. 10 μM) Make 100 μM solution in DMEM from 10 mM stock solution. (5) After 4 h, add 200 μl PBS to each well and remove the contents of the wells by inverting the plate and soaking on to the paper towel. Repeat the washing step three times, with 400 ul PBS each time. (6) Fix the cells and denature the DNA by adding 200 μl fixation/denaturation solution to each well for 30-40 min. (7) Remove the fixation/denaturation solution by tapping the plate on the paper towel and add 75 ul of anti BrdU peroxidase antibody to each well. (dilute the antibody to 0.1 U/mL from 15 U/mL stock in PBS containing 1% BSA, Fraction V). Incubate the plate O/N at 4° C. (8) Remove the antibody solution and wash wells four times with 400 μl of PBS. Let the wash solution stay for 3-4 min during each wash. (9) Drain the wells and add 100 μl of chemiluminiscence Elisa reagent (Prepare the reagent 15-20 min before use to bring it to rt by mixing 100 parts of reagent A with 1 part of reagent B). (10) Read the plate in a luminometer. Take 2-3 readings within 6-7 min. Perform the following controls:
Deoxybromouridine (BrdU), anti BrdU peroxidase antibodies, fixation/denaturation solution, chemiluminiscence reagent and BSA Fraction V, were obtained from Boehringer Mannheim. The 96-well white plate with clear bottom were purchased from Corning Costar Corporation. Dulbecco's Modified Eagle Medium containing high glucose, L-glutamine and pyridoxine HCl was obtained from GIBCO BRL.

CDK1 = CDK1 (Homo sapiens, UniProt P06493); experiment: Cyclin dependent protein kinase substrate phosphorylation assay, CDK1; type: biochemical; conditions: read-out: CDK1 IC50
Chain of CDK1 (P06493 whole entry, species assumed): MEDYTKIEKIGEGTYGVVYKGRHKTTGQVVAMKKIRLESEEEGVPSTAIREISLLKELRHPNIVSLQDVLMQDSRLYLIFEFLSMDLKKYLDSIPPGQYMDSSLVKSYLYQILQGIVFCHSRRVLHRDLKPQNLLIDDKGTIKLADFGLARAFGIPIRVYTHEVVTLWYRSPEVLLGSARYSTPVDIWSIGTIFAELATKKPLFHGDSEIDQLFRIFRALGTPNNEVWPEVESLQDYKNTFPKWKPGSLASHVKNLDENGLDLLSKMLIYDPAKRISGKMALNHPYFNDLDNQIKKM
Chain of CDK1 (P14635 whole entry partner, species assumed): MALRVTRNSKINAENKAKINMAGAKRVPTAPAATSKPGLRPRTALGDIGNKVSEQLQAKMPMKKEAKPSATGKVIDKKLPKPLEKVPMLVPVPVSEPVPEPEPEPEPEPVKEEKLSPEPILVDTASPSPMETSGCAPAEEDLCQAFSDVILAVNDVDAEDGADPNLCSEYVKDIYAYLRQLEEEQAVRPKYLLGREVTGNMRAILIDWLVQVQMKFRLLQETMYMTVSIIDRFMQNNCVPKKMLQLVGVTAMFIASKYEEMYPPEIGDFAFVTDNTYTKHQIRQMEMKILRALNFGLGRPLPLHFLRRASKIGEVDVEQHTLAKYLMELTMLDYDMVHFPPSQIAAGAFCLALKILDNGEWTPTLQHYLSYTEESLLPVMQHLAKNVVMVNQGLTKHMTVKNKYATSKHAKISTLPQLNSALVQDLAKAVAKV
Description: Cyclin dependent protein kinase assays utilized the peptides Biotin-aminohexyl-[…] and Biotin-aminohexyl-[…]-NH2 as phosphoryl group acceptors. CDK1 and CDK2 were both expressed utilizing a baculovirus expression system and were partially purified to comprise 20-80% of total protein, with no detectable competing reactions present. Typically, assays were performed by incubating either enzyme (0.2-10 nM), with and without inhibitor, one of the two peptide substrates ([…]), [γ-^32P]ATP ([…]), and 10-20 mM Mg^2+ for periods of time generally within the range 10-120 min. Reactions were terminated with 0.2-2 volumes of either 20% acetic acid or 50-100 mM EDTA buffered to pH 7 (substrate consumption<20%). The buffer employed in enzyme assays was either 30 mM HEPES 7.4 containing 0.15 M NaCl and 5% DMSO, the buffer 50 mM MOPS 7.0 containing 0.15 M NaCl and 5% DMSO, or the buffer 100 mM HEPES pH 7.5 containing 0.1 mg /mL BSA and 5% DMSO. Inhibitors were diluted in 100% DMSO prior to addition into the assay. Detection of peptide phosphorylation was accomplished by scintillation counting following either collection of peptide onto phosphocellulose filters (for reactions stopped with acetic acid), collection of peptide in wells of 96 well plates coated with Streptavidin (Pierce) (reactions were stopped with EDTA), or addition of Avidin coated Scintillant impregnated beads (Scintillation Proximity Assays from Amersham, reactions were stopped with EDTA).

[3] = tested on: HDF normal diploid fibroblast cells; experiment: MTT assay, HDF; type: cell-based, human; conditions: 72 h; read-out: MTT HDF IC50
Description: (§9) Compounds are tested for their ability to inhibit cell proliferation and cell viability. The metabolic conversion of 3-(4,5-dimethylthiazol-2-yl)-2,5-diphenyltetrazolium bromide (MTT, Sigma #M2128) to a reduced form is a commonly used measure of cellular viability. Following is the procedure:
Cells are maintained in 75 cm^2 tissue culture flasks until ready for use. The cells are grown and plated for the assay in Dulbecco's modified Eagle's media (DMEM) containing 10% fetal bovine serum. For example, the following cell lines can be used: a) human foreskin fibroblasts (HFF); b) HT29 (human colon carcinoma cell line); c)MDA-MB-468 (human breast carcinoma cell line); d) RKO (human colon adenocarcinoma cell line); e) SW620 (human colon carcinoma cell line); f) A549 (human lung carcinoma cell line); and g) MIA PACA (human pancreatic carcinoma cell line). Cells are maintained at 37° C. in 10% CO2, 90% humidified air. Cells are plated in 96-well tissue culture plates at the densities listed below. […]
Cells are returned to incubator and allowed to proliferate in the presence of compound for 72 h before addition of MTT. […] Quantitation of metabolic reduction of MTT in each plate is performed by reading optical density at 570 nm wavelength on a Molecular Devices UVmax microplate reader. Growth inhibition curves and 50% inhibitory concentrations are determined using Microsoft Excel. […]

MDA MB468 = experiment: MTT assay, MDA MB468; type: cell-based, human; conditions: read-out: MTT MDA MB468 IC50
Description: as §9
(§10) Cells are maintained in 75 cm^2 tissue culture flasks until ready for use. The cells are grown and plated for the assay in Dulbecco's modified Eagle's media (DMEM) containing 10% fetal bovine serum. For example, the following cell lines can be used: a) human foreskin fibroblasts (HFF); b) HT29 (human colon carcinoma cell line); c)MDA-MB-468 (human breast carcinoma cell line); d) RKO (human colon adenocarcinoma cell line); e) SW620 (human colon carcinoma cell line); f) A549 (human lung carcinoma cell line); and g) MIA PACA (human pancreatic carcinoma cell line). Cells are maintained at 37° C. in 10% CO2, 90% humidified air. Cells are plated in 96-well tissue culture plates at the densities listed below. 100 μL of cell suspension is added to each well of the 96-well plate except the top row of the plate which contains no cells and serves as a reference for the spectrophotometer.
(§11) Cells are incubated overnight in DMEM containing 10% fetal bovine serum at 37° C. in 10% CO2, 90% humidified air prior to dosing. […] Compounds with solubilities of less than 30 μM are dosed at the highest soluble concentration. Stock solutions of compounds are made in 100% dimethyl sulfoxide (DMSO). Stock solutions are diluted in DMEM containing 100 μg/ml gentamicin and 0.3 to 0.6% DMSO at the twice the highest concentration to be placed on the cells. If compounds have been dissolved in DMSO the final concentration of DMSO on the cells is kept below 0.3%. Three-fold serial dilutions are performed on each compound to prepare 10 concentrations of the compound for dosing. 100 μl of diluted compound is added to the 100 μl of media currently on the dish. For each concentration of compound, 2-4 replicate wells are prepared.
(§12) Cells are returned to incubator and allowed to proliferate in the presence of compound for 72 h before addition of MTT. MTT is prepared in phosphate buffered saline (Irvine Scientific #9240) at a concentration of 2 mg/ml. 50 μl per well of MTT solution is added to the 200 μl of media to yield a final concentration of 0.4 mg/ml and plates are returned to the incubator for 4 h. After 4 h incubation the media, compound and MTT mixture is aspirated from the plates and 100 μl of 100% DMSO is added to each well in addition to 25 μl of Sorenson's Buffer (0.1M glycine, 0.1M NaCl, pH 10.5). Quantitation of metabolic reduction of MTT in each plate is performed by reading optical density at 570 nm wavelength on a Molecular Devices UVmax microplate reader. Growth inhibition curves and 50% inhibitory concentrations are determined using Microsoft Excel.

[4] = tested on: RKO colon adenocarcinoma cells; experiment: MTT assay, RKO; type: cell-based, human; conditions: 72 h, read-out: MTT RKO IC50
Description: as §9, §10, §11, §12, §8

[5] = tested on: HDF normal diploid fibroblast cells; experiment: FACS assay (cell death by flow cytometry), HDF; type: cell-based, human; conditions: 50% cell death, 72 h; read-out: FACS HDF IC50
Description: as §1, §2, §3, §4, §5, §6, §7, §8

[6] = tested on: MES/SA ovarian carcinoma cells; experiment: FACS assay (cell death by flow cytometry), MES/SA; type: cell-based; conditions: 50% cell death, 72 h, read-out: FACS MES/SA IC50
Description: as §1, §2, §3, §4, §5, §6, §7, §8

SMILES | IC50 (CDK2) | IC50 ([1]; Homo sapiens) | IC50 (CDK1) | IC50 (MDA MB468; Homo sapiens, MDA-MB-468, 72 h) | IC50 ([4]; Homo sapiens) | other results
CCC(C)Cc1cccc2c1C(=NNc1ccc(S(N)(=O)=O)cc1)C(=O)N2 (centres unmarked) [Example 11, 4-{N′-[4-(2-methylbutyl)-2-oxo-1,2-dihydro-indol-3-ylidene]-hydrazino}-benzenesulfonamide] | 1 to 10 nM | 1100 to 5000 nM | 11 to 50 nM |  |  | IC50 ([2]; Homo sapiens, Fibroblast): 1100 to 5000 nM
NS(=O)(=O)c1ccc(NN=C2C(=O)Nc3ccc(-c4cnco4)cc32)cc1 [Example 36, 4-[1-(5-Oxazol-5-yl-2-oxo-1,2-dihydro-indol-3-ylidene)-hydrazino]-benzenesulfonamide] |  |  |  |  |  | IC50 [3]: 1100 to 5000 nM; IC50 (MDA MB468; 72 h): 600 to 1000 nM; IC50 [1]: 600 to 1000 nM; IC50 [4]: 600 to 1000 nM; IC50 [5]: > 5000 nM; IC50 [2]: 600 to 1000 nM; IC50 [6]: 100 to 500 nM
COC(=O)c1ccc2c(c1)/C(=C/Nc1ccc(S(N)(=O)=O)cc1)C(=O)N2 [Example 27, 2-Oxo-3-(4-sulfamoyl-phenylamino-methylene)-2,3-dihydro-1H-indole-5-carboxylic acid methyl ester] |  |  | 11 to 50 nM |  |  | 
CN(C)S(=O)(=O)c1ccc(NC=C2C(=O)Nc3ccc(-c4cnco4)cc32)cc1 [Example 35, N,N-Dimethyl-4-[(5-oxazol-5-yl-2-oxo-1,2-dihydro-indol-3-ylidenemethyl)-amino]-benzenesulfonamide] | 1 to 10 nM | 1100 to 5000 nM | 11 to 50 nM | > 5000 nM | 1100 to 5000 nM | IC50 ([6]; Homo sapiens, MES-SA): > 5000 nM
CC(C)COC(=O)c1ccc2c(c1)C(=CNc1ccc(S(N)(=O)=O)cc1)C(=O)N2 [Example 103, 2-Oxo-3-(4-sulfamoyl-phenylamino-methylene)-2,3dihydro-1H-indole-5-carboxylic acid isobutyl ester] | 1 to 10 nM |  | 11 to 50 nM | 1100 to 5000 nM | 1100 to 5000 nM | 
O=C1Nc2ccc3ncsc3c2C1=CNc1ccc2nn[nH]c2c1 [Example 101, 8-(3H-Benzotriazol-5-ylaminomethylene)-6,8-dihydro-1-thia-3,6-diaza-as-indacene-7-one] | 11 to 50 nM | > 5000 nM | 51 to 100 nM | 1100 to 5000 nM |  | 
